Results on ten compounds are retold here after patent US7803826B2, “Imidazolidine derivatives” (Chugai Seiyaku Kabushiki Kaisha, priority 2004, dated 2010).

For orientation: IC50 means the concentration that gives 50% inhibition.

Series [1] deals with T1, human androgen receptor (Homo sapiens, UniProt P10275).
T1 construct: expressed in transfected cells
T1 sequence (P10275 1-920): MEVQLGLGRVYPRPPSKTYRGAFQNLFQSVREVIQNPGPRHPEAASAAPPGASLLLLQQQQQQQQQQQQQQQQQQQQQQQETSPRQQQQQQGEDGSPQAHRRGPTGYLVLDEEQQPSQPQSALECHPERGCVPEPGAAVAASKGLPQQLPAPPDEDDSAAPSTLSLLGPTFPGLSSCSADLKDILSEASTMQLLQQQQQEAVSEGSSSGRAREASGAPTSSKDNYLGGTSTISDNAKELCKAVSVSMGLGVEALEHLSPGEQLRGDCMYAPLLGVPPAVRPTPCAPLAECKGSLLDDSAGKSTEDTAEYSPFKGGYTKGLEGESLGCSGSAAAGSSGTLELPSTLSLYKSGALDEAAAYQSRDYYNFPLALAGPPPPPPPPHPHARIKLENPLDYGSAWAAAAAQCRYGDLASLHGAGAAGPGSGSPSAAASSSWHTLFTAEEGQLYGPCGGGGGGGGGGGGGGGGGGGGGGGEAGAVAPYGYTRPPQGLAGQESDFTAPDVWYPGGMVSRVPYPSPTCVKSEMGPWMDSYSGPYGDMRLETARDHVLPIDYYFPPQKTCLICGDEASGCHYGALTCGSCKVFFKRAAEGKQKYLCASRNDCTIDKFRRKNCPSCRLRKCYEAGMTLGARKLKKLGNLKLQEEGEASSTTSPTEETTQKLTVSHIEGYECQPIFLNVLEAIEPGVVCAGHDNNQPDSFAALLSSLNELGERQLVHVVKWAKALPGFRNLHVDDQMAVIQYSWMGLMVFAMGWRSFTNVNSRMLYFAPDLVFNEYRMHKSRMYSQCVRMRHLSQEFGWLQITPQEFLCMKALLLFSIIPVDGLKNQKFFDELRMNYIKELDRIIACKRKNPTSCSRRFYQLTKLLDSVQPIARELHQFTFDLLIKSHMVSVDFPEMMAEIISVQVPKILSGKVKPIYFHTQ
As to the kind of experiment: Investigation of agonist effects: androgen receptor reporter gene (MMTV-luciferase) assay in 11A11B2 cells. It is filed as cell-based. Conditions: compound concentration showing a transcription activity of 5% (0.1 nmol/L DHT = 100%, assay medium alone = 0%), 48 hours. Here is the method:
(§1) HeLa cells (purchased from Dai-Nippon Seiyaku K.K.) were cultured overnight in Dulbecco's Modified Eagle Medium containing no phenol red, but containing 3% charcoal-treated fetal bovine serum (hereafter referred to as DCC-FBS) (this medium is hereafter referred to as phenol-red-free DMEM). An MMTV-Luc-Hyg vector (reporter plasmid with mouse mammary tumor virus long terminal repeat as an androgen response element: vector obtained by substituting the chloramphenicol acetyl transferease gene of a GM-CAT vector (A.T.C.C No. 67282) purchased from the A.T.C.C. with the firefly luciferase gene, and inserting a hygromycin resistance gene as a drug resistance gene), and pSG5-hAR-neo (human androgen receptor expression vector: a vector having an androgen receptor gene under the control of the SV40 promoter, and having a neomycin resistance gene inserted as a drug resistance gene) were transfected into the HeLa cells using an FuGENE™ 6 Transfection Reagent (obtained from Roche).
(§2) A clone in which transcription activity was elevated in a dose-dependent manner by dihydrotestosterone was obtained by culturing the transfected cells in DMEM containing 500 μg/mL neomycin, 300 μg/mL hygromycin and 10% fetal bovine serum (hereafter referred to as FBS). The clone cells thus obtained (11A11B2 cells) were maintained and propagated using DMEM containing 400 μg/mL neomycin, 200 μg/mL hygromycin and 10% FBS, and were propagated using phenol-red-free DMEM containing 10% DCC-FBS three to four days prior to the performance of an androgen receptor reporter gene assay.
The 11A11B2 cells were inoculated in a white clear-bottomed 96-well microplate (COSTAR) so that the cell concentration was 1.0×10^4/well, using phenol-red-free DMEM containing 3% DCC-FBS (hereafter referred to as the assay medium), and were cultured overnight. The assay medium containing the compounds of the examples and compounds of the comparative examples were added so that the final concentrations of the compounds of the examples and compounds of the comparative examples were 1, 10, 100, 1,000 and 10,000 nmol/L (however, in the case of the compounds of Examples 1 and 2, the compounds were added so that the final concentrations were […]), and the cells were cultured for 48 hours, after which the transcription activity value was measured. The transcription activity was measured using a Bright-Glo™ Luciferase Assay System (Promega).
The transcription activity rates of the compounds of the examples were calculated from the transcription activity measured by the abovementioned method, with the transcription activity value obtained at 0.1 nmol/L DHT taken as 100%, and the transcription activity value in the case of the assay medium alone taken as 0%. The compound concentration showing a transcription activity of 5% (EC5 value) was calculated from a linear equation for two points on either side of 5%.

The conditions of series [2]: prostate cancer patients treated with flutamide; cited from earlier work.
The target in another series is androgen receptor (Homo sapiens, UniProt P10275). The conditions noted are these: at a concentration of 10 μmol/L; cited from earlier work.
Series [3] concerns the target T1, human androgen receptor. As to the kind of experiment: Investigation of antagonist effects: androgen receptor reporter gene (MMTV-luciferase) assay in 11A11B2 cells with 0.1 nmol/L DHT. It is filed as cell-based. The protocol: as §1, §2
After culturing for 48 hours, the transcription activity values were measured. The transcription activity was measured using a Bright-Glo™ Luciferase Assay System (Promega).
The transcription activity rates of the compounds of the examples were calculated from the transcription activity measured by the abovementioned method, with the transcription activity value obtained at 0.1 nmol/L DHT taken as 100%, and the transcription activity value in the case of the assay medium alone taken as 0%.
Accordingly, the value obtained by subtracting the transcription activity rate of Test Example 1 (Investigation of Agonist Activity) from the transcription activity rate of Test Example 2 (Investigation of Antagonist Activity) was used to calculate the compound concentration at which a transcription activity of 50% was shown (IC50 value). The IC50 value was calculated from a linear equation for two points on either side of 50%.
For orientation: Reporter assays use an easily measured gene product as a stand-in for the process of interest.

For the next series, the system named is castrated rats. Conditions: continuously administered for two weeks; cited from earlier work.
Where [4] appears, read: 11A11B2 cells, 0.1 nmol/L DHT, 48 hours, agonist transcription activity rate of Test Example 1 subtracted, read-out: IC50.

Read-outs that look alike come from different tables or passages of the source. Bounds are passed on as bounds.

In the case of `CN1C(=S)N(c2ccc(C#N)c(C(F)(F)F)c2)C(=O)C1(C)C` [Comparative Example 1, 4-(5-oxo-2-thioxo-3,4,4-trimethyl-1-imidazolidinyl)-2-trifluoromethylbenzonitrile, reference compound], on human androgen receptor [1], the EC5 worked out at 8e-05 µM.
Same read-out and setting: the figure for `CC(=O)NCCN1C(=S)N(c2ccc(C#N)c(C(F)(F)F)c2)C(=O)C1(C)C` [Comparative Example 2, 4-[3′-(2″-N-acetylaminoethyl)-4′,4′-dimethyl-5′-oxo-2′-thioxo-1′-imidazolidinyl]-2-trifluoromethylbenzonitrile, reference compound] is 3 µM.
Regarding `CC(C)(O)C(=O)Nc1ccc([N+](=O)[O-])c(C(F)(F)F)c1` [Comparative Example 4, hydroxyflutamide], the EC5 at human androgen receptor [1] was determined as 0.01 µM. For the same compound, the “hydroxyflutamide concentration in the blood” value in series [2] is listed as “several”. Also, the “androgen receptor transcription activity” value at androgen receptor is on record as “increase”.
`CC1(C)C(=O)N(c2ccc(C#N)c(Cl)c2)C(=S)N1CCCS(N)(=O)=O` [Example 1, 3-[3-(3-chloro-4-cyanophenyl)-5,5-dimethyl-4-oxo-2-thioxoimidazolidin-1-yl]propane-1-sulfonic acid amide] had an EC5 on human androgen receptor [1] greater than 10 µM. Also, inhibition against human androgen receptor [3] was half-maximal at 200 nM (IC50).
For the compound `COc1cc(N2C(=O)C(C)(C)N(CCCS(N)(=O)=O)C2=S)ccc1C#N` [Example 2, 3-[3-(4-cyano-3-methoxyphenyl)-5,5-dimethyl-4-oxo-2-thioxoimidazolidin-1-yl]propane-1-sulfonic acid amide], the EC5 on human androgen receptor [1] was greater than 10 µM. The IC50 on human androgen receptor [3] (setting [4]) came to 300 nM.
The corresponding values for `CC1(C)C(=O)N(c2ccc(C#N)c(Cl)c2)C(=S)N1CCCCS(N)(=O)=O` [Example 26, 4-[3-(3-chloro-4-cyanophenyl)-5,5-dimethyl-4-oxo-2-thioxoimidazolidin-1-yl]butane-1-sulfonic acid amide] are greater than 10 µM and 900 nM.
The corresponding values for `CC1(C)C(=O)N(c2ccc(C#N)c(Cl)c2)C(=S)N1CCCCCS(N)(=O)=O` [Example 27, 5-[3-(3-chloro-4-cyanophenyl)-5,5-dimethyl-4-oxo-2-thioxoimidazolidin-1-yl]pentane-1-sulfonic acid amide] are greater than 10 µM and 400 nM.
The corresponding values for `CC1(C)C(=O)N(c2ccc(C#N)c(Cl)c2)C(=S)N1CCS(N)(=O)=O` [Example 28, 2-[3-(3-chloro-4-cyanophenyl)-5,5-dimethyl-4-oxo-2-thioxoimidazolidin-1-yl]ethane-1-sulfonic acid amide] are greater than 10 µM and 400 nM.
As to `CC(=O)O[C@]1(C(C)=O)CC[C@H]2[C@@H]3C=C(Cl)C4=CC(=O)CC[C@]4(C)[C@H]3CC[C@@]21C` [chlormadinone acetate], the “weight of the prostate gland” value in the series with castrated rats was “increase”.
Regarding `CC(=O)O[C@]1(C(C)=O)CC[C@H]2[C@@H]3C=C(Cl)C4=CC(=O)[C@@H]5C[C@@H]5[C@]4(C)[C@H]3CC[C@@]21C` [cyproterone acetate], the “weight of the prostate gland” value in the series with castrated rats is “increase”.
